From patent US20180216060A1, “METHODS AND MEANS FOR THE MODIFICATION OF CELL SURFACES” (ACADEMISCH ZIEKENHUIS LEIDEN (ALSO ACTING UNDER THE NAME OF …, priority 2015, published 2018)
Where a SMILES comes first, the peptide text is derived from it. Bridges are numbered along the chain shown (N, C = ends). [ ]: non-standard residue; d: D form. The star is where a group is joined. Adamantane1carbonyl = O=C(C12CC3CC(CC(C3)C1)C2)*; 2Nal = N[C@@H](Cc1ccc2ccccc2c1)C(=O)O; Cit = NC(=O)NCCC[C@H](N)C(=O)O

How the values were obtained:
[1] = target: T1, CXCR4 receptor (Homo sapiens, UniProt P61073); test: Flow cytometry competition with Ac-TZ14011-MSAP to determine receptor affinity (KD); assay type: binding; conditions: competition with Ac-TZ14011-MSAP (250 nM), MDA-GFP-CXCR4+ cells
T1 construct: expressed in transfected cells; host or cells: MDA-MB-231 human breast cancer cells (MDA-GFP-CXCR4+), gift of Dr. Gary Luker
Description: The necessity of a multivalent approach was studied by direct comparison between an entity comprising polymeric host functional groups (multivalent) and a monovalent host functional group. A genetically modified MDA-MB-231 human breast cancer cell line that has the Green Fluorescent Protein (GFP) directly coupled to the overexpressed CXCR4 receptor was used to study the interactions with CXCR4 positive cells. The CXCR4 chemokine receptor is over-expressed in the membrane of many human cancer cells, but CXCR4 also play a major role in the chemotaxis of stem cells. The cyclic peptide Ac-TZ14011 is often used to target this receptor and was also chosen here as the ligand. […] The binding strength between the receptor and the peptide was determined by competition with a previously reported modified Ac-TZ14011 derivative. […] The cells were then washed two times with 1% BSA in PBS, resuspended in 1% BSA in PBS and fluorescence of the reference compound was measured by using a BD FacsCanto™ II flow cytometer with APC-Cy7 settings. Live cells were gated on forward scatter and side scatter and 10000 viable cells were analyzed. […] The KD values were calculated by using the “Binding-Competitive, One site-Fit Ki” nonlinear regression equation of GraphPad Prism. […]
MDA-GFP-CXCR4+ cells were trypsinized (using 0.5% trypsin/EDTA, BD Biosciences) and counted. […]

[2] = Sensing: binding of functionalized cells to a glass slide coated with β-cyclodextrin; conditions: 1 h ligand incubation, 15 min on slide
Description: A glass slide was coated with β-cyclodextrin in a line of 400 micrometer wide. CXCR4 expressing cells (see previous examples) were incubated for 1 h with the ligand-guest compound Ac-TZ14011-Ad as discussed above and then added to the glass slide and incubated for 15 min. […] The conclusion of this experiment is that cells can be selectively found (and bound) within a solution by using the guest-host chemistry of the present invention. This enables one to purify (and at least to sense) particular types of cells within a solution and/or mixture of cells.

T1 sequence (P61073 whole entry): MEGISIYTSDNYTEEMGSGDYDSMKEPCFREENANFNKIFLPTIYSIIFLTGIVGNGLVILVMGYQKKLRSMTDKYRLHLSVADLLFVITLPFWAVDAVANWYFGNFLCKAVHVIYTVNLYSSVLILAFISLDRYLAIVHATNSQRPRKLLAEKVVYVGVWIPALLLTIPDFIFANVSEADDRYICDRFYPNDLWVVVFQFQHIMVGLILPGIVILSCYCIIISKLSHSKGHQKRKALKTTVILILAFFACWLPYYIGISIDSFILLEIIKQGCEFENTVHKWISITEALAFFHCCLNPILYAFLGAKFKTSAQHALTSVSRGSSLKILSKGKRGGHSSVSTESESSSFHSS

Question: Which results are given for CC(=O)N[C@@H](CCCNC(=N)N)C(=O)N[C@@H](CCCNC(=N)N)C(=O)N[C@@H](Cc1ccc2ccccc2c1)C(=O)N[C@H]1CSSC[C@@H](C(=O)N[C@@H](CCCNC(=N)N)C(N)=O)NC(=O)[C@H](CCCNC(N)=O)NC(=O)[C@H](CCCNC(=N)N)NC(=O)[C@H](Cc2ccc(O)cc2)NC(=O)[C@@H]2CCCN2C(=O)[C@@H](CCCCNC(=O)C23CC4CC(CC(C4)C2)C3)NC(=O)[C@H](CCCNC(=N)N)NC(=O)[C@H](CCCNC(N)=O)NC(=O)[C@H](Cc2ccc(O)cc2)NC1=O [Ac-TZ14011-Ad] (Ac-RR[2Nal]CY[Cit]R[dK](Adamantane1carbonyl)PYR[Cit]CR-NH2; disulfide 4-13)?
Answer: Kd [1]: 56 nM; attachment of functionalized cells to the cyclodextrin coated area [2]: preferentially attach
